Test results taken from the supplement of paper PMC11451515.

System: SEM cells
Test: cell viability relative to DMSO control; higher = less cytotoxic
Conditions: 48 h
Procedure, shortened: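 Three leukemia lines were tested: NOMO1 and SEM at 500 cells/well and P12-Ichikawa at 1000 cells/well. Each was adapted for at least four passages in each medium and seeded in 5 μl in 1536-well plates, and library compounds in DMSO were pin-dosed from 47 μM to 0.79 nM in 11 threefold steps. After 48 h at 37°C, CellTiter-Glo One luminescence was read. Viability is a percentage relative to DMSO wells on each plate, with cell-free wells as background.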

[1] = HPLM + 10% dialyzed FBS, 0.000781 µM
[2] = HPLM + 10% dialyzed FBS, 0.00234 µM
[3] = HPLM + 10% dialyzed FBS, 0.00702 µM
[4] = HPLM + 10% dialyzed FBS, 0.0211 µM
[5] = HPLM + 10% dialyzed FBS, 0.0632 µM
[6] = HPLM + 10% dialyzed FBS, 0.19 µM
[7] = HPLM + 10% dialyzed FBS, 0.569 µM
[8] = HPLM + 10% dialyzed FBS, 1.71 µM
[9] = HPLM + 10% dialyzed FBS, 5.12 µM
[10] = HPLM + 10% dialyzed FBS, 15.4 µM
[11] = HPLM + 10% dialyzed FBS, 46.1 µM
[12] = RPMI 5 mM glucose + 10% FBS, 0.000781 µM
[13] = RPMI 5 mM glucose + 10% FBS, 0.00234 µM
[14] = RPMI 5 mM glucose + 10% FBS, 0.00702 µM
[15] = RPMI 5 mM glucose + 10% FBS, 0.0211 µM
[16] = RPMI 5 mM glucose + 10% FBS, 0.0632 µM
[17] = RPMI 5 mM glucose + 10% FBS, 0.19 µM
[18] = RPMI 5 mM glucose + 10% FBS, 0.569 µM
[19] = RPMI 5 mM glucose + 10% FBS, 1.71 µM
[20] = RPMI 5 mM glucose + 10% FBS, 5.12 µM
[21] = RPMI 5 mM glucose + 10% FBS, 15.4 µM
[22] = RPMI 5 mM glucose + 10% FBS, 46.1 µM
[23] = RPMI 5 mM glucose + 10% dialyzed FBS, 0.000781 µM
[24] = RPMI 5 mM glucose + 10% dialyzed FBS, 0.00234 µM
[25] = RPMI 5 mM glucose + 10% dialyzed FBS, 0.00702 µM
[26] = RPMI 5 mM glucose + 10% dialyzed FBS, 0.0211 µM
[27] = RPMI 5 mM glucose + 10% dialyzed FBS, 0.0632 µM
[28] = RPMI 5 mM glucose + 10% dialyzed FBS, 0.19 µM
[29] = RPMI 5 mM glucose + 10% dialyzed FBS, 0.569 µM
[30] = RPMI 5 mM glucose + 10% dialyzed FBS, 1.71 µM
[31] = RPMI 5 mM glucose + 10% dialyzed FBS, 5.12 µM
[32] = RPMI 5 mM glucose + 10% dialyzed FBS, 15.4 µM
[33] = RPMI 5 mM glucose + 10% dialyzed FBS, 46.1 µM

SMILES	cell viability [1]	cell viability [2]	cell viability [3]	cell viability [4]	cell viability [5]	cell viability [6]	cell viability [7]	cell viability [8]	cell viability [9]	cell viability [10]	cell viability [11]	cell viability [12]	cell viability [13]	cell viability [14]	cell viability [15]	cell viability [16]	cell viability [17]	cell viability [18]	cell viability [19]	cell viability [20]	cell viability [21]	cell viability [22]	cell viability [23]	cell viability [24]	cell viability [25]	cell viability [26]	cell viability [27]	cell viability [28]	cell viability [29]	cell viability [30]	cell viability [31]	cell viability [32]	cell viability [33]
CCCCCCCCCCCCCCCCCCOP(=O)([O-])OC1CC[N+](C)(C)CC1	82.4%	112%	97.5%	88.7%	103%	101%	109%	106%	87.4%	82.4%	73.8%	91.9%	104%	100%	95.3%	120%	108%	104%	102%	98.2%	98.4%	73.7%	101%	96.9%	98%	84.3%	99.9%	94.9%	101%	99.9%	87.6%	82%	60.2%
O=C(CCc1ccc(O)cc1)c1c(O)cc(O)cc1O[C@@H]1O[C@H](CO)[C@@H](O)[C@H](O)[C@H]1O	78.3%	99.9%	107%	107%	100%	85.8%	88.2%	102%	104%	93.1%	81.9%	80.9%	93.9%	98.4%	97.6%	79.6%	94.6%	89.4%	78.6%	93.7%	92.2%	83.4%	61.4%	102%	89.6%	104%	86.9%	89.1%	90.5%	86.7%	89.5%	77.4%	73.1%
COc1ccc2c(c1OC)CN1CCc3cc4c(cc3C1C2)OCO4 (centres undefined)	85.3%	80.1%	86.5%	104%	87.4%	64.3%	72.8%	41.3%	13%	8.04%	7.89%	92.5%	93.6%	87%	93.6%	84.3%	45.6%	59.8%	20.2%	9.42%	7.3%	6.85%	79.6%	83.1%	96.7%	90.8%	99%	55%	56.5%	28.8%	11.3%	8.19%	8.01%
C=CCn1c(=O)c2cnc(Nc3ccc(N4CCN(C)CC4)cc3)nc2n1-c1cccc(C(C)(C)O)n1	117%	118%	127%	110%	98.6%	81.4%	61.4%	28.3%	25.7%	24.5%	29.4%												111%	119%	135%	93.5%	90.8%	64.6%	52.7%	26.3%	15.7%	19.3%	21.8%
C[S+]([O-])c1ccc(-c2nc(-c3ccc(F)cc3)c(-c3ccncc3)[nH]2)cc1 (centres undefined)	83.2%	84.2%	91.8%	84%	102%	81.5%	86.9%	62%	40.9%	4.09%	2.22%	103%	106%	102%	105%	107%	79.3%	75.1%	41%	21.9%	3.29%	2.41%	92.6%	99.7%	89.8%	97.8%	98.1%	77%	79.2%	59.4%	26.1%	3.71%	2.23%
CO[C@H]1C[C@@H]2CC[C@@H](C)[C@@](O)(O2)C(=O)C(=O)N2CCCC[C@H]2C(=O)O[C@H]([C@H](C)C[C@@H]2CC[C@@H](OCCO)[C@H](OC)C2)CC(=O)[C@H](C)/C=C(/C)[C@@H](O)[C@@H](OC)C(=O)[C@H](C)C[C@H](C)\C=C/C=C\C=C/1C	47.5%	91.9%	74.6%	65.2%	77.2%	58.6%	42.7%	42.1%	20.8%	10.7%	14.2%	51.7%	86.2%	71.1%	71.7%	75%	64.9%	41.5%	28.4%	17.2%	12.9%	12.6%	50.8%	84%	73.8%	65.4%	68.3%	63.4%	49.5%	37%	13.7%	10.4%	11.8%
O=C1CCc2ccc(OCCCCN3CCN(c4cccc(Cl)c4Cl)CC3)cc2N1	111%	121%	111%	41%	113%	112%	101%	89.2%	129%	119%	113%	104%	111%	105%	24.5%	96.4%	101%	98.5%	23.1%	107%	95.7%	73.1%	120%	108%	113%	34.9%	105%	112%	120%	106%	105%	117%	74.7%
CC(C)[C@H](CO)Nc1nc(Nc2cccc(Cl)c2)c2ncn(C(C)C)c2n1	88.8%	88.2%	97.6%	101%	110%	99.4%	69.8%	49.4%	3.37%	1.22%	2.26%	86.7%	112%	101%	95.4%	71%	86.4%	21.6%	4.3%	1.34%	0.473%	1.1%	98.6%	107%	91.5%	104%	106%	93.5%	35.7%	18.9%	1.89%	0.704%	1.74%
Cc1cc(O)c2c(c1)C(=O)c1cc(O)cc(O)c1C2=O	102%	108%	110%	115%	100%	108%	98.9%	99.4%	106%	99.4%	86.7%	101%	99.3%	101%	101%	120%	128%	111%	102%	112%	120%	86.5%	92.7%	106%	114%	117%	112%	106%	106%	106%	123%	103%	103%
O=C1NC(O)CCN1[C@@H]1O[C@H](CO)[C@@H](O)[C@H]1O (some centres undefined)												114%	125%	123%	111%	114%	125%	117%	111%	115%	134%	122%											
NC\1=N\C(=O)N(\C=C1)[C@H]\2[C@H](O)[C@H](O)C(=C2F)\CO	77.6%	90.2%	85%	103%	92.2%	97.6%	108%	96.3%	52.5%	28.8%	16.8%	118%	116%	130%	148%	113%	118%	128%	117%	74.1%	74.5%	57.9%	90.2%	95.3%	95.1%	103%	117%	109%	92.2%	51.8%	23.1%	19%	15.3%
O=c1[nH]cnc2c1ncn2[C@H]1CC[C@@H](CO)O1	85.7%	97%	104%	102%	88.3%	101%	102%	110%	99.8%	90.5%	69.4%	85.1%	86.6%	98%	95.8%	90.8%	86.4%	99.9%	94%	83.4%	60.8%	47.4%	77.6%	86.1%	84.3%	85.2%	77.7%	97.6%	105%	92.7%	99.5%	67.8%	70.3%
CN(C)C[C@@H]1CC[N]2C=C(C3=C2C=CC=C3)C/4=C(/C(=O)NC4=O)C5=C[N](CCO1)C6=C5C=CC=C6	87.6%	56.8%	105%	110%	97.5%	99.6%	91.2%	81.4%	79.2%	56.8%	2.57%	118%	59.2%	97.3%	97%	99.2%	119%	105%	89.1%	77.7%	49.6%	2.71%	97.7%	47.9%	102%	105%	107%	105%	93.7%	87.2%	73.2%	51.8%	2.49%
O=C(NNC(=O)c1ccc(CN[S+](=O)([O-])c2ccc(F)c(Cl)c2)cc1)c1ccccc1	84.6%	97.1%	98.2%	89.9%	107%	109%	109%	102%	112%	106%	87%	92.9%	85.2%	92.5%	75%	91.5%	98.3%	102%	105%	88.2%	104%	106%	79.6%	76.6%	89.6%	97.4%	96%	91.1%	93.1%	96.9%	87%	103%	64.5%
